Results taken from US20220313620A1, “COMPOSITION FOR PREVENTING AND TREATING TAUOPATHIES” (SERVICIO ANDALUZ DE SALUD, priority 2019, published 2022).

How the values were obtained:
Ghrelin = assay: Plasma ghrelin (ELISA) after acute oral gavage in fasted rats; format: in vivo; conditions: oral 500 mg/kg, adult male Wistar rats, FIG. 3A / FIG. 4
Method: The protocol was approved by the Ethics Committee for Animal Experiments of the University of Malaga.
D-Pinitol (3-0-methyl-D-chiro-inositol) was generously provided by EURONUTRA SL (https://www.euronutra.com/, Malaga, Spain), in the form of crystalline fine powder (lot: PPN-M0201). For acute treatments, D-Pinitol was dissolved in water to be administered by gavage (orally) at different concentrations (100 mg/Kg and 500 mg/Kg), drug was administered at a volume of 1 ml/kg.
After 18 hours of fasting, D-Pinitol dissolved in water was administered acutely by gavage (100 mg/kg in a first study, and 500 mg/kg in a subsequent study). After administration, the animals were sacrificed in groups at different times (being time 0 the administration of D-Pinitol). For the first study (100 mg/kg), groups of animals were sacrificed at times: 10, 20, 30, 60, 120, 240 and 360 minutes after administration; for the second study (500 mg/kg), animals were sacrificed at times: 60, 120 and 240 minutes after administration. As a control group, a group was administered only with water (by gavage).
Animals were anesthetized with sodium pentobarbital (50 mg/Kg, i.p.), blood, brain and liver samples were collected. Blood was centrifuged (2100 g for 8 min, 4° C.) and the plasma kept for further analysis. Liver and brain samples were flash-frozen in liquid N2, then stored at −80° C. until further analysis.
The plasma levels of insulin and ghrelin were determined with an enzyme-linked immunosorbent assay (ELISA) method using commercial kits: EMD Millipore Corporation (Billerica, Mass., USA) Cat. #EZRMI-13K and Cat. #EZRGRT-91K, respectively. Glucagon levels in plasma was determined with a Glucagon Enzyme Immunoassay (EIA) Kit: Cat. #RAB0202 Sigma-Aldrich (Saint Louis, Mo., USA). All serum samples were assayed in duplicate within one assay, and results were expressed in terms of the particular standard hormone.

[1] = tested on: glycogen synthase kinase-3β (GSK-3β); assay: Hippocampal GSK-3β phosphorylation and total level (western blot) after 10 days of oral administration; format: in vivo, Wistar rats; conditions: oral 100 mg/Kg for 10 days, hippocampus
Method: (§1) Animal experimental procedures were carried out in accordance with the European Communities directive 2010/63/EU and Spanish legislation (Real Decreto 53/2013). The protocol was approved by the Research and approved by Ethics Committee for Animal Experiments of the University of Malaga, Spain. In accordance with the ARRIVE guidelines, all efforts were made to minimize animal suffering and to reduce the number of animals used per experimental group. Chronic drinking experiments on Wistar rats were performed on 20 male rats. All adult rats, ageing 2 months (≈300 g of body weight), were provided by Charles River Laboratories (Barcelona, Spain). The animals were housed individually under a standard 12 h light-dark cycle in a room with temperature and humidity control. Water and rat chow pellets were provided ad libitum throughout the course of the present study.
(§2) Caromax®-D-Pinitol (3-O-methyl-d-chiro-inositol, DPIN, 98% purity) and Caromax®-D-Chiro-inositol (cis-1,2,3-trans-3,5,6-cyclohexanehexol, DCI) were provided by Euronutra SL (Málaga, Spain). They were dissolved in water to orally daily administration by drinking and/or gavage at dose of 100 mg/Kg of body weight (BW) in a 1 ml/kg of BW volume to Zucker and Wistar rats for 4 weeks (28 days) and 10 days, respectively (FIG. 1). During the drinking treatments, the concentration of inositols in the water were updated considering the daily increase of BW of the rats and the possible loss of water by evaporation.
(§3) Brain extract. Frozen brain samples (17 mg per sample) were homogenized in 1 mL of cold RIPA lysis buffer (50 mM Tris-HCl pH 7.4, 150 mM NaCl, 0.5% NaDOC, 1 mM EDTA, 1% Triton, 0.1% SDS, 1 mM Na3VO4, 1 mM NaF) supplemented with a protease cocktail (Hoffmann-Roche). The suspension was incubated for 2 hours at 4° C., followed by centrifugation at 12,000 rpm for 15 minutes at 4° C. The supernatant was transferred to a new clean centrifuge tube, and Bradford colorimetric method was used to determine the concentration of the total protein. The protein extracts were diluted 1:1 in loading buffer (DTT 2X) and heated for 5 minutes at 99° C. before being subjected to electrophoresis.
Western Blot Analysis. The tissue protein (10-15 μg) was subjected to electrophoresis on 4-12% Criterion XT Precast Bis-Tris gels (Bio-Rad, USA) for 30 minutes at 80V and 2 h at 150V. Proteins were transferred onto a 0.2 μm nitrocellulose membrane (Bio-Rad, USA) for 1 h at 80V by wet transfer equipment. The membrane was washed twice for 5 min in TBST (10 mM Tris-HCl, 150 mM NaCl, 0.1% Tween 20, pH 7.6) and blocked with 2% Bovine Serum Albumin-Tris Buffered Saline Tween 20 (BSA-TBST) for one hour at room temperature on a shaker platform. Subsequently, the membrane was incubated with respective primary antibodies overnight at 4° C. diluted in 2% BSA-TBST (Table 2 for additional information). The following day, the membrane was washed three times for 5 min with TBST. An appropriate HRP conjugated rabbit/mouse secondary antibody (Promega) was diluted 1:10000 in 2% BSA-TST and incubated with the membrane for 1 h shaking at room temperature. Finally, the membrane was washed as above and exposed to chemiluminescent reagent (Santa Cruz, Biotechnology Inc.) for 5 min. Stripping/reproving steps were used when necessary. Respective membrane bound protein was then visualized by Chemiluminescence (ChemiDoc Imaging System, Bio-Rad). Bands were quantified by densitometric analysis using ImageJ software (Rasband, WS, ImageJ, US National Institutes of Health, Bethesda, Md., USA). Normalization was performed using a reference protein of the same membrane, the α-Adaptin. The results were expressed as the protein/α-Adaptin ratio or phosphorylated/total protein ratio and normalized to the control group (Y axis represents ‘fold mean of the control values’).
All data are expressed as mean±SEM. Statistical analysis was undertaken for studies where each group size was of, at least, n=5. […]

tau protein = assay: Hippocampal tau phosphorylation and total tau (western blot) after 10 days of oral drinking; format: in vivo, Wistar rats; conditions: oral by drinking 100 mg/Kg for 10 days, hippocampus
Method: as §1, §2, §3
Western Blot Analysis. The tissue protein (10-15 μg) was subjected to electrophoresis on 4-12% Criterion XT Precast Bis-Tris gels (Bio-Rad, USA) for 30 minutes at 80V and 2 h at 150V. […] Bands were quantified by densitometric analysis using ImageJ software (Rasband, WS, ImageJ, US National Institutes of Health, Bethesda, Md., USA). […] The results were expressed as the protein/α-Adaptin ratio or phosphorylated/total protein ratio and normalized to the control group (Y axis represents ‘fold mean of the control values’).
All data are expressed as mean±SEM. […]

Question: With `OC1C(O)C(O)C(O)C(O)C1O` [DCI, (1R,2R,3S,4S,5S,6S)-cyclohexane-1,2,3,4,5,6-hexol] as the molecule, how does the “circulating plasma Ghrelin concentration” value (Ghrelin) read?
Answer: enhances

Question: And the “GSK-3β serine-9 phosphorylation” value ([1]; FIG. 9A.1)?
Answer: no effect

Question: And the “GSK-3β tyrosine-216 phosphorylation” value ([1]; FIG. 9A.2)?
Answer: no effect

Question: And the “GSK-3β kinase activity (Ser9/Tyr216)” value ([1]; FIG. 9A.3)?
Answer: neither enhance nor inhibition

Question: And the “quantity of phospho-tau (AT8: Ser202, Thr205) compared with vehicle group” value (tau protein; FIG. 7A.1)?
Answer: dropped to more than half

Question: What about the “relative protein levels of total tau compared with vehicle group” value (tau protein; FIG. 7A.2) of the same molecule?
Answer: rise
